Each block holds one compound with its values, some of them ahead of it.
Tests used:
[1] = Directional permeability of drug analogues across primary BBMEC monolayers (in vitro BBB model); type: in vitro ADME, bovine; conditions: bovine, pH 7.4, donor 10 µM, 0–90 min, mean ± SD, n = 3; for Papp A→B at 10 µM: apical-to-basolateral, read-out: Apparent Permeability Coefficient A → B; for Papp B→A at 10 µM: basolateral-to-apical, read-out: Apparent Permeability Coefficient B → A
Protocol: (§1) The BBMEC were isolated by a modified method previously described. Briefly, the meninges were removed from the gray matter of fresh cow cerebral cortices and mechanically homogenized through a 100 μm mesh screen. Dispase II enzyme (5 mg/ml) reconstituted in MEM isolation media (MEM ([…]), HEPES (50 mM), polymyxin B (50 ug/ml), gentamicin (50 ug/ml) and amphotercin B (2.5 ug/ml) at pH 7.4) was added to the freshly homogenized cerebral cortical tissue (10 mg/g brain tissue) and MEM isolation media at […] was added (equal w/w of brain tissue). The mixture was placed in an incubated shaker for one hour (37°C, 150 rpm). Following this incubation, the supernatant was removed by centrifugation (10 min at 1570 rcf). […] The crude capillary pellet was collected and re-suspended in a collagenase/dispase (5 mg/ml) solution at a final concentration of 0.1% (v/w) and placed in an incubated shaker (37°C, 150 rpm) for one hour. […] The digested capillaries were centrifuged (10 min, 1700 rcf) to remove the enzymatic treatment and re-suspended in isolation media and pipetted into the percoll gradient tubes. The BBMEC cells were then separated by centrifugation (10 min at 1700 rcf). […] The BBMEC were plated (approximately 50,000 cells/cm^2 density) on collagen-coated, fibronectin-treated culture plates, and incubated in a humidified incubator (37°C with 5% (v/v) CO2). The cells were used after reaching confluence, typically 8-12 days. The concentrations of both drugs, Imatinib and INNO-406, were analyzed by a rapid HPLC separation and UV-VIS detection. […] The effluents were monitored at 223 nm and quantified using the area under the peak from standard solutions dissolved in assay II buffer (0.4 to 25 μg/ml). Assay II buffer consisted of sodium chloride (122 mM), potassium chloride (3 mM), calcium chloride (1.4 mM), magnesium sulfate (1.2 mM), sodium bicarbonate (25 mM), HEPES (10 mM), d-glucose (10 mM) and potassium phosphate (0.4 mM) at Ph of 7.4. The directional comparison of drug analogues transported in primary BBMEC monolayers was determined. These methods have been previously described, [21]. Briefly, the freshly isolated BBMEC were plated in triplicates (50,000 cells/cm^2 seeding density) on collagen-coated, fibronectin-treated polycarbonate membrane inserts, and cultured until confluence (12 mm; 0.4 μm pore size, Costar TranswellTM 12-well, Cambridge, MA). Complete culture media from confluent BBMEC monolayers was replaced 24-hours prior to the start of the experiment. The confluent monolayers were mounted in side-by-side diffusion chambers ([…]) either the apical or the basolateral sides were supplied with fresh assay II buffer with drug (donor chamber, 10 μM). Samples (100 μl) were removed from the […] compartment at various time points (0-90 min) and replaced with fresh buffer. The concentration of drug in the samples was determined spectrophotometrically by HPLC methodology reported above ([…]). The directional transport was expressed as the percent of the respective drug across the BBMEC monolayers over time (Mean ± SD, n = 3).

BBMEC monolayers = assay: as above; type: in vitro ADME, bovine; conditions: for Apparent Permeability Ratio A → B/B→ A: mean ± SD, n = 3
Protocol: as §1

[2] = cited from earlier work
SH-SY5Y cells = assay: Lactate dehydrogenase cytotoxicity assay, MPP+-treated cells; type: cell-based; conditions: 6 h pretreatment with 0.5 or 1.0 µM; MPP+ 500 µM; 24 h after exposure
Protocol: The release of lactate dehydrogenase for cytotoxicity was measured by LDH assay kit (Roche#11644793001). A 100 µL of the supernatant from treated cells was transferred to new 96-well plates. The plates were incubated for 30 min at room temperature on orbital shaker. A colorimetric absorbance was recorded at 490 nm with a reference wavelength of 650 nm using a micro plate reader for colorimetric detection (BioTek, USA). Each experiment was done in triplicate. Cytotoxicity is expressed in terms of percent relative to the basal lactate dehydrogenase release by untreated control cells where controls cells serve as 100 percent.
Figure 4 INNO-406 prevents dopaminergic depletion and c-Abl mediated parkin phosphorylation in mice striatum. (A) INNO-406 prevents MPTP-induced depletion of striatal dopamine and its metabolites DOPAC and HVA in adult male C57BL/J6 mice. Animals received INNO-406 (10 mg/kg, i.p.) as a single daily injection for 7 days before MPTP injection. […] The optical density quantification data as normalized amounts is presented. * Considered statistically significant from control (p<0.05). ** Considered statistically significant from MPTP (p<0.05). (C) Cytotoxicity plotted as a percentage of control as measured by LDH in SH-SY5Y cells treated with MPP^+ (500 µM). […] Differences among means were analyzed using one-way analysis of variance (ANOVA). […]

[3] = tested on: c-Abl activation, parkin tyrosine phosphorylation, AIMP2 accumulation; assay: Immunoprecipitation/immunoblot of striatal lysates of MPTP-treated mice; type: in vivo, C57BL/6 mice; conditions: 10 mg/kg i.p. daily one week before and one week after MPTP; vs MPTP alone
Bcr-Abl = conditions: preclinical studies; cited from earlier work
[4] = tested on: MPTP-induced dopaminergic damage in C57BL/6 mice; assay: MPTP mouse model of PD: TH+ neuron stereology, striatal TH optical density, striatal dopamine; type: in vivo
[5] = Brain levels of INNO-406 in C57 mice after single i.p. injection; type: in vivo; conditions: for Brain level of INNO-406: C57 mice
Protocol: For pharmacokinetic studies, INNO-406 was injected at 2.5 mg/kg/i.p. or 10 mg/kg/i.p. in C57 mice and brains were harvested 1 h, 4 h, and 24 h after a single injection. In another study, INNO-406 was injected at 2.5 mg/kg/i.p. or 10 mg/kg/i.p. in C57 mice in the presence or absence of MPTP (4×20 mg/kg/i.p. at 2 h interval) after last injection of MPTP and brains were harvested 1 h, 4 h, and 24 h after a single injection of INNO-406. Finally, brain levels of MPP+ in C57 mice were measured 1 h, 4 h, and 24 h after single injection of MPTP (60 mg/kg/i.p.) in the presence or absence of a single injection of INNO-406 (2.5 mg/kg/i.p. or 10 mg/kg/i.p.).
The concentrations of both drugs, Imatinib and INNO-406, were analyzed by a rapid HPLC separation and UV-VIS detection. Briefly, the isocratic HPLC analysis for both Imatinib and INNO-406 were achieved on a C18 Zorbax column (150×4.6 mm, 5 um) (Phenomenex, Torrance, CA) with a simple mobile phase consisting of methanol and deionized water (50∶50% v/v/) at a flow rate of 1.0 ml/min. The effluents were monitored at 223 nm and quantified using the area under the peak from standard solutions dissolved in assay II buffer (0.4 to 25 µg/ml). Assay II buffer consisted of sodium chloride (122 mM), potassium chloride (3 mM), calcium chloride (1.4 mM), magnesium sulfate (1.2 mM), sodium bicarbonate (25 mM), HEPES (10 mM), d-glucose (10 mM) and potassium phosphate (0.4 mM) at Ph of 7.4.

[6] = INNO-406 10 mg/kg i.p. without MPTP

Papp A→B at 10 µM [1]: 12.96 ± 0.07 ×10⁻⁶ cm/s
Papp B→A at 10 µM [1]: 63.86 ± 0.23 ×10⁻⁶ cm/s
Apparent Permeability Ratio A → B/B→ A (BBMEC monolayers): 0.20±0.001
Structure (SMILES): Cc1ccc(NC(=O)c2ccc(CN3CCN(C)CC3)cc2)cc1Nc1nccc(-c2cccnc2)n1 [Imatinib]
Brain bioavailability [2]: limited brain bioavailability
Capacity to cross blood-brain barrier [2]: minimal capacity to cross blood-brain barrier

Papp A→B at 10 µM [1]: 98 ± 6.74 ×10⁻⁶ cm/s
Papp B→A at 10 µM [1]: 94.5 ± 10.1 ×10⁻⁶ cm/s
Enhancement of apical-to-basolateral transport across BBMEC monolayers compared to Imatinib (BBMEC monolayers; apical-to-basolateral, vs Imatinib): approximately 7.5 fold
Apparent Permeability Ratio A → B/B→ A (BBMEC monolayers): 1.00±0.119
Brain level of INNO-406 ([5]; 1 h after single injection of 10 mg/kg i.p.): 50 ng
Brain level of INNO-406 ([5]; 4 h after single injection of 10 mg/kg i.p.): 80 ng
Brain level of INNO-406 ([5]; 24 h after single injection of 10 mg/kg i.p.): 65 ng
Effect of multiple MPTP injections on brain levels of INNO-406 ([5]; MPTP 4×20 mg/kg i.p. at 2 h interval, INNO-406 2.5 or 10 mg/kg i.p., 1, 4, 24 h): not altered
Structure (SMILES): Cc1ccc(NC(=O)c2ccc(CN3CC[C@H](N(C)C)C3)c(C(F)(F)F)c2)cc1Nc1nccc(-c2cncnc2)n1 [INNO-406]
MPP+-induced cytotoxicity (LDH release) (SH-SY5Y cells): prevented
Striatal level of AIMP2 [3]: significant decreases
Striatal level of phospho-c-Abl [3]: significant decreases
Striatal level of phospho-parkin [3]: significant decreases
Potency relative to Imatinib in vivo (Bcr-Abl): ≥ 10 fold
Loss of TH staining intensity in striatum in MPTP mice that also received INNO-406 ([4]; 10 mg/kg i.p. daily one week before and after MPTP, relative to controls, MPTP alone 70% loss): 35%
Prevention (decrease) of loss of dopamine (and DOPAC, HVA) in the striatum ([4]; 10 mg/kg i.p. daily one week before and one week after MPTP 4×20 mg/kg i.p. every 2 h): 45%
MPTP-induced loss of TH+ neurons in the SNpc in mice also treated with INNO-406 ([4]; 10 mg/kg i.p. daily one week before and one week after MPTP 4×20 mg/kg, vs saline, MPTP alone 60–65% loss): 15–20%
Organization and intensity of TH-immunoreactive neurons in SNpc, INNO-406 alone vs saline [4, 6]: essentially similar
TH immunoreactivity within the striatum, INNO-406 alone vs control [4, 6]: similar
Entry into brain [2]: significantly enter brain

From publication PMC3669292, “Neuroprotective Efficacy of a New Brain-Penetrating C-Abl Inhibitor in a Murine Parkinson’s Disease Model” (PLoS ONE, 2013)
